Laboratory results reported in patent US20110020801A1, “Carboxylesterase-1 Polymorphisms and Methods of Use Therefor” (priority 2007, published 2011).

Biological target: T1, p.Gly143Glu CES1 (Homo sapiens, UniProt P23141, G143E)
T1 construct: inserting a stop codon after CES1A1 gene to yield the constructs expressing CES1 without V5-His tag; expressed in transfected cells
T1 sequence (P23141 18-567 G143E/Y526T): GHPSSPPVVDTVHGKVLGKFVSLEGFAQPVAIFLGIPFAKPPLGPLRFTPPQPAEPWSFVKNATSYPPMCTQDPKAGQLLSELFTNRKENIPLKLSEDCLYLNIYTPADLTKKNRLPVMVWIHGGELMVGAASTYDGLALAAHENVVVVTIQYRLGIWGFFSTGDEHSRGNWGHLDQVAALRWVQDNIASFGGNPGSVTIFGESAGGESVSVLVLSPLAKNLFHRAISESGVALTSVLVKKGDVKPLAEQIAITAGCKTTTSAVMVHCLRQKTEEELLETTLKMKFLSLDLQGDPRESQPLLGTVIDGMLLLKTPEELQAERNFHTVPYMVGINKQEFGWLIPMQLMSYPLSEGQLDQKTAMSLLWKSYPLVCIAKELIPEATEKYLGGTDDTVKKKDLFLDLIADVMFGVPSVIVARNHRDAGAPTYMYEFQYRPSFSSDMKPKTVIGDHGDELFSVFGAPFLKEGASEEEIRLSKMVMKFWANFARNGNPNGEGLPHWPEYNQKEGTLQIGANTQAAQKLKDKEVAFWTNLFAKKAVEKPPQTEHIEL
Experiment: MPH hydrolysis to ritalinic acid by S9 of cells expressing p.Gly143Glu CES1 (HPLC)
Format: biochemical
Settings: S9 500 μg/ml, even at very high S9 concentration (2 mg/ml); 37° C., 2 h
From the text: The desired plasmid was designed such that the recombinant CES1 would be expressed in mammalian cells with a V5-His tag to facilitate detection and purification. Additionally, another plasmid was generated by inserting a stop codon after CES1A1 gene to yield the constructs expressing CES1 without V5-His tag. […] Thus, only untagged CES1 and its associated mutants were used in the enzymatic hydrolysis study. Two constructs of CES1 mutations, p.Gly143Glu and p.Asp260fs, were generated using a site-directed mutagenesis assay. All constructs were subjected to DNA sequencing analysis to confirm that the desired plasmids were obtained. The identified CES1A1 plasmids (WT, p.Gly143Glu, and p.Asp260fs) were co-transfected with pOG44 plasmid at a ratio of 1:10 into Flp-In™-293 cells using […] (Invitrogen, Carlsbad, Calif.). Additionally, the self-ligated pcDNA5/FRT/V5-His-TOPO® vector was included as a vector control. Twenty-four hours after transfection, cells were washed with PBS and fresh complete medium (Dulbecco's modified Eagle's medium containing 10% fetal bovine serum) was added. […]
After attaining approximately 95% confluence, cells were rinsed and harvested in PBS containing 10 mM HEPES (pH 7.4). […] The protein concentration was determined using a Pierce BCA assay kit (Rockford, Ill.).
For the study of MPH hydrolysis, the reaction was conducted in 1.5 mL eppendorf tubes with a final S9 concentration of 0.5 mg/mL at a total volume of 100 μL. […] Concentrations of the primary phase I MPH metabolite produced via hydrolysis, ritalinic acid (RA), was determined utilizing an established HPLC method described below.
Thus, following the enzymatic assay, the values determined for spontaneous PNP and RA hydrolysis were subtracted from the total PNP and RA production. […] All collected data were fit to the Michaelis-Menten equation, and kinetic parameters were calculated using nonlinear regression analysis with Graphpad Prism software (Graphpad Software Inc., San Diego, Calif.) […]

## COC(=O)[C@H](c1ccccc1)[C@H]1CCCCN1 [d-MPH, methylphenidate]
  catalytic activity towards MPH hydrolysis: failed to show any hydrolytic activity
